Assay results taken from ChEMBL document CHEMBL1212931, “Identification of a naturally occurring rexinoid, honokiol, that activates the retinoid X receptor” (J Nat Prod, 2010).
Activity calls are given as the source filed them. The rule behind the calls is not given here.

Legend:
RAW264.7 [1] = assay: Activation of RXR/LXR heterodimer in mouse RAW264.7 cells assessed as induction of ABCA1 mRNA expression by RT-PCR; assay type: cell-based
[2] = target: T1, Retinoic acid receptor RXR-alpha (Mus musculus) (UniProt P28700); assay: Agonist activity at RXRalpha in mouse peritoneal macrophages assessed as ApoAI-mediated cholesterol efflux after 24 hrs […]; assay type: functional
T1 sequence (whole entry): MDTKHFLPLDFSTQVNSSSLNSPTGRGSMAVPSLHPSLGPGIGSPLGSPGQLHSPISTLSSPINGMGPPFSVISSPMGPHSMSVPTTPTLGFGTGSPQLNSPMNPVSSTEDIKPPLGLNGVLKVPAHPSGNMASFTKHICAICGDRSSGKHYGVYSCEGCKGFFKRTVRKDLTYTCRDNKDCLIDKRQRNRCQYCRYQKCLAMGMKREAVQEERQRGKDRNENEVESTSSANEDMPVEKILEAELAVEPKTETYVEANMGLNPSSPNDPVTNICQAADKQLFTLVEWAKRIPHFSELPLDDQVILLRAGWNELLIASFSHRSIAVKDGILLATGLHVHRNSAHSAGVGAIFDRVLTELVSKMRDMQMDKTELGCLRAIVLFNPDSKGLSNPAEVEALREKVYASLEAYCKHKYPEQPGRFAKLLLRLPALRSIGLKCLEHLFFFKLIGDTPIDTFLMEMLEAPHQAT

[3] = target: T2, Retinoic acid receptor RXR-alpha (Homo sapiens) (UniProt P19793); assay: Binding affinity to RXRalpha
T2 sequence (whole entry): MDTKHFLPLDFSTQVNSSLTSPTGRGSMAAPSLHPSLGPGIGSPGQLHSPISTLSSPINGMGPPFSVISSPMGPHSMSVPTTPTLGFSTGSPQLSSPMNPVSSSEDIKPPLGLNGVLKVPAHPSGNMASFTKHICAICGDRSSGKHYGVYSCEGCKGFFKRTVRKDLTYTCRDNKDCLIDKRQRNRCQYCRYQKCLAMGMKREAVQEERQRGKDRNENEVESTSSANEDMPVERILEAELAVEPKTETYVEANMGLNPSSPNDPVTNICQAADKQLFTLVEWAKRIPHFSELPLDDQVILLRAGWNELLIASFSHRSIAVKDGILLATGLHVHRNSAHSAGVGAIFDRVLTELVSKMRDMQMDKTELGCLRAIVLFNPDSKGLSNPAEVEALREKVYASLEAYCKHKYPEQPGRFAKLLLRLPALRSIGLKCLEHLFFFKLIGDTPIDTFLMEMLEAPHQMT

[4] = target: T3, Retinoic acid receptor RXR-alpha (Homo sapiens, UniProt P19793); assay: Agonist activity at RXRalpha in HEK293 cells assessed as transcriptional activation after 48 hrs by luciferase reporter gene assay; assay type: functional, cell-based
T3 sequence (P19793 whole entry): T2 sequence (whole entry)

[5] = target: T4, Oxysterols receptor LXR-alpha (Homo sapiens) (UniProt Q13133); assay: Agonist activity at LXRalpha in HEK293 cells assessed as transcriptional activation after 48 hrs by luciferase reporter gene assay; assay type: functional, cell-based
T4 sequence (whole entry): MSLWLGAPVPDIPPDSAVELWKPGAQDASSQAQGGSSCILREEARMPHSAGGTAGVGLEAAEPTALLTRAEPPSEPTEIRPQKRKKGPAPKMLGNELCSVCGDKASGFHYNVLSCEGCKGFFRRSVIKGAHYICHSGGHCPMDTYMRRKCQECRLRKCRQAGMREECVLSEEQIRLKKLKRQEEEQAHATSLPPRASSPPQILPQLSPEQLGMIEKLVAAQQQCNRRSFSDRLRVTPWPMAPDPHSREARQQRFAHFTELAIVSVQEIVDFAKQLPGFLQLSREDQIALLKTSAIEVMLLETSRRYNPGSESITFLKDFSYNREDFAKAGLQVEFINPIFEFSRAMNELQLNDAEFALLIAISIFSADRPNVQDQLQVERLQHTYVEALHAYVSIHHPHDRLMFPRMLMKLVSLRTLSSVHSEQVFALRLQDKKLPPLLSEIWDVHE

[6] = target: T5, Peroxisome proliferator-activated receptor delta (Homo sapiens) (UniProt Q03181); assay: Agonist activity at PPARdelta in HEK293 cells assessed as transcriptional activation after 48 hrs by luciferase reporter gene assay; assay type: functional, cell-based
T5 sequence (whole entry): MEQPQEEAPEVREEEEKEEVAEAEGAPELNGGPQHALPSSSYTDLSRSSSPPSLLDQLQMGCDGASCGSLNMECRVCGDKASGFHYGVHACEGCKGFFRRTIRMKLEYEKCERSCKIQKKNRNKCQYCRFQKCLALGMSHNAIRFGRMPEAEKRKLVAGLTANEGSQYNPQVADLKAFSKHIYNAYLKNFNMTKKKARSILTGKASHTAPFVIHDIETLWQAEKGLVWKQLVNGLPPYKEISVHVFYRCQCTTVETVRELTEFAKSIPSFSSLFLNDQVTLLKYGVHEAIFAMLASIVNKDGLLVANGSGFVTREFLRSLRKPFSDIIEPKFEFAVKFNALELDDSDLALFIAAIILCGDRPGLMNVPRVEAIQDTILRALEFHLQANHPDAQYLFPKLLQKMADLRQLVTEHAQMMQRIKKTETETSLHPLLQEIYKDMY

[7] = target: T6, Peroxisome proliferator-activated receptor gamma (Homo sapiens) (UniProt P37231); assay: Agonist activity at PPARgamma in HEK293 cells assessed as transcriptional activation after 48 hrs by luciferase reporter gene assay; assay type: functional, cell-based
T6 sequence (whole entry): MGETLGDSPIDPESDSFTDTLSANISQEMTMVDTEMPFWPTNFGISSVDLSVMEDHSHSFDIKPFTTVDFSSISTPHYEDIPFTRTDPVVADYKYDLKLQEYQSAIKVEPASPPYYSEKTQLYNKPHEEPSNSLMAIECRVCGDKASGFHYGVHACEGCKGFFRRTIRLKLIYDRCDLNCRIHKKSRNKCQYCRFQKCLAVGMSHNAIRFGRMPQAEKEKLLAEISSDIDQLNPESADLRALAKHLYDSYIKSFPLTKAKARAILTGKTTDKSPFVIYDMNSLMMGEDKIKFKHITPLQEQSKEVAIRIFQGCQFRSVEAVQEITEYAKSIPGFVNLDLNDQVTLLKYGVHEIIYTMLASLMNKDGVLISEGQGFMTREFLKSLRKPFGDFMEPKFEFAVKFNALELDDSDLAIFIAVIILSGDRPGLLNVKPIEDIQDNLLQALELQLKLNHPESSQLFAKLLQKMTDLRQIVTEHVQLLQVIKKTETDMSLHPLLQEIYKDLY

RAW264.7 [8] = assay: Activation of RXR/LXR heterodimer in mouse RAW264.7 cells assessed as induction of ABCG1 mRNA expression by RT-PCR; assay type: cell-based
RAW264.7 [9] = assay: Activation of RXR/LXR heterodimer in mouse RAW264.7 cells assessed as induction of ABCG1 mRNA expression by RT-PCR RXR antagonist HX531; assay type: functional, cell-based
RAW264.7 [10] = assay: Activation of RXR/LXR heterodimer in mouse RAW264.7 cells assessed as induction of ABCG1 mRNA expression by RT-PCR in presence of RXR antagonist HX531; assay type: functional, cell-based
RAW264.7 [11] = assay: Activation of RXR/LXR heterodimer in mouse RAW264.7 cells assessed as induction of ABCG1 mRNA expression by RT-PCR in presence of 22(R)-hydroxycholesterol; assay type: cell-based
[12] = target: T1, Retinoic acid receptor RXR-alpha (Mus musculus); assay: Agonist activity at RXRalpha in mouse peritoneal macrophages assessed as ApoAI-mediated cholesterol efflux in presence of 22(R)-hydroxycholesterol after 24 hrs […]; assay type: functional

Row | SMILES | Activity (RAW264.7 [1]) | Activity [2] | Activity [3] | further results
1 | C=C(c1ccc(C(=O)O)cc1)c1cc2c(cc1C)C(C)(C)CCC2(C)C | Dose-dependent effect | Active |  | 
2 | CC(C)CC[C@@H](O)[C@@H](C)[C@H]1CC[C@H]2[C@@H]3CC=C4C[C@@H](O)CC[C@]4(C)[C@H]3CC[C@]12C | Dose-dependent effect | Active |  | 
3 | CC(C)CCC[C@@H](C)CCC[C@@H](C)CCCC(C)CC(=O)O (stereo partly drawn) |  |  | Active | 
4 | CC/C=C\C/C=C\C/C=C\C/C=C\C/C=C\C/C=C\CCC(=O)O |  |  | Active | 
5 | C=CCc1ccc(O)c(-c2ccc(O)c(CC=C)c2)c1 [HONOKIOL] | Dose-dependent effect | Active | Active | EC50 [4]: 11.8 µM; Activity [5]: inactive; Activity [6]: inactive; Activity [7]: inactive; Activity (RAW264.7 [8]): Active; Activity (RAW264.7 [9]): inactive; Activity (RAW264.7 [10]): inactive; Activity (RAW264.7 [11]): Active; Activity [12]: inactive
